Test results taken from US20170037111A1, “Novel peptides and combination of peptides for use in immunotherapy against ovarian cancer and other cancers” (immatics biotechnologies GmbH, priority 2015, published 2017).

How the values were obtained:
[1] = test system: CD8+ T cells; experiment: In vitro T-cell priming (immunogenicity) with aAPCs loaded with peptide/MHC and anti-CD28, pMHC multimer readout; type: cell-based, human; conditions: in vitro immunogenicity; HLA-A*02 restricted peptides; positive wells among evaluable
Source text: In order to obtain information regarding the immunogenicity of the TUMAPs of the present invention, the inventors performed investigations using an in vitro T-cell priming assay based on repeated stimulations of CD8+ T cells with artificial antigen presenting cells (aAPCs) loaded with peptide/MHC complexes and anti-CD28 antibody.
In order to perform in vitro stimulations by artificial antigen presenting cells loaded with peptide-MHC complex (pMHC) and anti-CD28 antibody, the inventors first isolated CD8+ T cells from fresh HLA-A*02 leukapheresis products via positive selection using CD8 microbeads (Miltenyi Biotec, Bergisch-Gladbach, Germany) of healthy donors obtained from the University clinics Mannheim, Germany, after informed consent.
PBMCs and isolated CD8+ lymphocytes were incubated in T-cell medium (TCM) until use consisting of RPMI-Glutamax (Invitrogen, Karlsruhe, Germany) supplemented with 10% heat inactivated human AB serum (PAN-Biotech, Aidenbach, Germany), 100 U/ml Penicillin/100 μg/ml Streptomycin (Cambrex, Cologne, Germany), 1 mM sodium pyruvate (CC Pro, Oberdorla, Germany), 20 μg/ml Gentamycin (Cambrex). 2.5 ng/ml IL-7 (PromoCell, Heidelberg, Germany) and 10 U/ml IL-2 (Novartis Pharma, Nürnberg, Germany) were also added to the TCM at this step.
Generation of pMHC/anti-CD28 coated beads, T-cell stimulations and readout was performed in a highly defined in vitro system using four different pMHC molecules per stimulation condition and 8 different pMHC molecules per readout condition.
The purified co-stimulatory mouse IgG2a anti human CD28 Ab 9.3 (Jung et al., 1987) was chemically biotinylated using Sulfo-N-hydroxysuccinimidobiotin as recommended by the manufacturer (Perbio, Bonn, Germany). Beads used were 5.6 μm diameter streptavidin coated polystyrene particles (Bangs Laboratories, Illinois, USA).
pMHC used for positive and negative control stimulations were A*0201/MLA-001 (peptide […] (SEQ ID NO. 664) from modified Melan-A/MART-1) and A*0201/DDX5-001 ([…] from DDX5, SEQ ID NO. 665), respectively.
800.000 beads/200 μl were coated in 96-well plates in the presence of 4×12.5 ng different biotin-pMHC, washed and 600 ng biotin anti-CD28 were added subsequently in a volume of 200 μl. Stimulations were initiated in 96-well plates by co-incubating 1×10^6 CD8+ T cells with 2×10^5 washed coated beads in 200 μl TCM supplemented with 5 ng/ml IL-12 (PromoCell) for 3 days at 37° C. Half of the medium was then exchanged by fresh TCM supplemented with 80 U/ml IL-2 and incubating was continued for 4 days at 37° C. This stimulation cycle was performed for a total of three times. For the pMHC multimer readout using 8 different pMHC molecules per condition, a two-dimensional combinatorial coding approach was used as previously described (Andersen et al., 2012) with minor modifications encompassing coupling to 5 different fluorochromes. Finally, multimeric analyses were performed by staining the cells with Live/dead near IR dye (Invitrogen, Karlsruhe, Germany), CD8-FITC antibody clone SK1 (BD, Heidelberg, Germany) and fluorescent pMHC multimers. For analysis, a BD LSRII SORP cytometer equipped with appropriate lasers and filters was used. Peptide specific cells were calculated as percentage of total CD8+ cells. Evaluation of multimeric analysis was done using the FlowJo software (Tree Star, Oregon, USA). In vitro priming of specific multimer+CD8+ lymphocytes was detected by comparing to negative control stimulations.
Exemplary flow cytometry results after TUMAP-specific multimer staining for two peptides of the invention are shown in FIG. 3 together with corresponding negative controls.

[2] = target: HLA-A*02:01 (Homo sapiens, UniProt P04439, D140Y/D185E/D98H/E176V/E277Q/G131W/G231S/I119V/I121R/I166T/I218V/L300P/L318F/N151K/N90K/P208A/P217A/Q86G/Q94H/R138H/R169H/T345S); experiment: MHC binding assay (UV-ligand exchange, β2m ELISA, peptide exchange yield); conditions: MHC class I binding score; binding to HLA-A*02:01 ranged by peptide exchange yield (UV-ligand exchange, β2m ELISA)
How it was run: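 Peptide–HLA-A*02:01 complexes were formed by UV-mediated exchange of a UV-cleavable ligand for the test peptide. Exchange yield was measured by capturing complexes on streptavidin, detecting with HRP anti-β2m antibody (1 h, 37°C) and reading TMB absorbance at 450 nm.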

[3] = test system: ovarian cancer; conditions: clinical studies, phase as stated; cited from earlier work

Substance	Wells positive [%] [1]	Peptide exchange [2]	clinical effect in ovarian cancer patients [3]
446 (QLIPALAKV; listed as Homo sapiens) [compound 446]	″++″ (20%-49% = ++)	″+++″ (≧50% = +++)	–
454 (KLPPPPPQA; listed as Homo sapiens) [compound 454]	″++″ (20%-49% = ++)	″+++″ (≧50% = +++)	–
460 (AMLEKNYKL; listed as Homo sapiens) [compound 460]	″+″ (<20% = +)	″++++″ (≧75% = ++++)	–
463 (SLVESHLSDQLTL; listed as Homo sapiens) [compound 463]	″++″ (20%-49% = ++)	″+++″ (≧50% = +++)	–
489 (KMWEELPEVV; listed as Homo sapiens) [compound 489]	″+″ (<20% = +)	″+++″ (≧50% = +++)	–
499 (KIFDIDEAEEGV; listed as Homo sapiens) [compound 499]	″+″ (<20% = +)	″++″ (≧20% = ++)	–
511 (FLDPYCSASV; listed as Homo sapiens) [compound 511]	″+″ (<20% = +)	″++″ (≧20% = ++)	–
518 (KLNAEVACV; listed as Homo sapiens) [compound 518]	″++″ (20%-49% = ++)	″+++″ (≧50% = +++)	–
603 (FLIEPEHVNTV; listed as Homo sapiens) [compound 603]	″+″ (<20% = +)	″++″ (≧20% = ++)	–
Ipilimumab: anti-CTLA4 antibody, which enhances T cell activity	–	–	significant anti-tumor effects
MORAb-003: anti-folate receptor alpha antibody	–	–	limited clinical benefit
bevacizumab: anti-VEGF antibody	–	–	appears to be advantageous
catumaxomab	–	–	promising results
oregovomab	–	–	promising results
